Like-named read-outs stand apart in the source and are kept apart here. Starred links: 1 amine or outer side, 2 acyl side, 3 side chain; linkers in the order of their positions; H or OH if unused. Positions of bridges follow the written chain, without caps; N, C: chain ends. Non-standard residues stand in square brackets, D forms with d. Residues, ends and D or L forms follow the SMILES beside them. Groups on a side chain read outwards from the residue. *: point of attachment. X6 = CS(=O)(=O)c1ccc(-c2ccc(C[C@H](N[*:1])C(=O)[*:2])cc2)cc1; Phe(3-OCH2COOH) = N[C@@H](Cc1cccc(OCC(=O)O)c1)C(=O)O; X15 = O=C([C@H](Cc1ccc(-c2ccccn2)cc1)N[*:1])[*:2]; Phe(3-Ph) = N[C@@H](Cc1cccc(-c2ccccc2)c1)C(=O)O; Piperidine(4-CH2CH2CONH2) = NC(=O)CCC1CCN(*)CC1; Phe(4-COOH) = N[C@@H](Cc1ccc(C(=O)O)cc1)C(=O)O; Tyr(Ph) = N[C@@H](Cc1ccc(Oc2ccccc2)cc1)C(=O)O; Piperazinyl(4-CH2COOH) = O=C(O)CN1CCN(*)CC1; Gly(decyl) = CCCCCCCCCC[C@H](N)C(=O)O; Gly(N(CH2)3COOH) = O=C(O)CCCNCC(=O)O; NMeY = CN[C@@H](Cc1ccc(O)cc1)C(=O)O; X1 = CCCCCCC[C@H](N[*:1])C(=O)[*:2]; NMeF = CN[C@@H](Cc1ccccc1)C(=O)O; NMeE = CN[C@@H](CCC(=O)O)C(=O)O; Cha = N[C@@H](CC1CCCCC1)C(=O)O; Carboxymethyl = O=C(O)C*; NMeA = CN[C@@H](C)C(=O)O; Propyl(3-NH2) = NCCC*; CO = O=C([*:1])[*:2]; Sar = CNCC(=O)O
Tests used:
Myostatin = target: T1, Myostatin (Homo sapiens, UniProt O14793); test: HepG2 reporter gene assay, Evaluation Procedure (2): 2-concentrations assay, myostatin inhibition; type: cell-based
T1 construct: active myostatin (also called mature myostatin) is a homodimer consisting of two C-terminal growth factor domains; purchased R&D systems 788-G8/CF
T1 sequence (O14793 267-375): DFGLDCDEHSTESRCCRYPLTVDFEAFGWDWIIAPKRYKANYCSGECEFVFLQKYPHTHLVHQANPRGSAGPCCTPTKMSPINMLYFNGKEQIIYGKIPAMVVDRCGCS
Experimental: (§1) The pGL3(CAGA)12-luc plasmid, namely a pGL3 vector (E1751, Promega) having a luciferase gene inserted downstream of a promoter sequence with 12 CAGA repeats attached, was transfected into HepG2 cell line (HB-8065, ATCC). The culture of HepG2 cell line (HB-8065, ATCC) was performed as in the Evaluation Procedure (1).
(§2) Myostatin (788-G8/CF, R&D systems) or GDF-11 (1958-GD-G8/CF, R&D systems) was added at a final concentration of 10 ng/mL. […] At this time, blank wells, in which neither myostatin, GDF-11, nor each peptide was added, were also prepared and incubated in a CO2 incubator (37°C, 5% CO2) for 20 to 24 hours.
(§3) The medium containing the cells was removed, and a mixture containing PBS (14190144, Thermo) and a chromogenic substrate One-Glo Luciferase Assay System (E6120, Promega) at a ratio of 1:1 was added to each well at 100 µL/well. This was stirred with a plate shaker for 5 min and transferred to a 384-well plate (3570, Corning) at a volume of 20 µL/well.
(§4) The plate was centrifuged at 1,000 × g for 1 min and the luminescence signal (700 nm luminescence) was measured using a plate reader (Envision 2104, PerkinElmer). Based on the measurement results, the inhibition rate at each peptide concentration was calculated. […]

GDF-11 = target: T2, GDF-11 (Homo sapiens, UniProt O95390); test: HepG2 reporter gene assay, Evaluation Procedure (2): 2-concentrations assay, GDF-11 inhibition; type: cell-based; settings: for inhibition at 0.03 µM: HepG2, peptide 30nM, read-out: GDF11 Inhibition 30nM; for inhibition at 0.03 µM / inhibition at 0.1 µM: GDF-11 10 ng/mL; for inhibition at 0.1 µM: HepG2, peptide 100nM, read-out: GDF11 Inhibition 100nM
T2 construct: purchased R&D systems 1958-GD-G8/CF
T2 sequence (O95390 299-407): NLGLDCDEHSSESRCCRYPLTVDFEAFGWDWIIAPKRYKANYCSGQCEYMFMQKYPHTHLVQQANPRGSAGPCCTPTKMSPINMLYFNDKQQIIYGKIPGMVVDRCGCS
Experimental: as §1, §2, §3, §4

[1] = HepG2, read-out: inhibition rate (myostatin inhibition assay)
[2] = peptide 30nM, Myostatin 10 ng/mL, HepG2, read-out: Myostatin Inhibition 30nM
[3] = peptide 100nM, Myostatin 10 ng/mL, HepG2, read-out: Myostatin Inhibition 100nM

SMILES	inhibition at 0.03 µM (Myostatin; [2])	inhibition at 0.1 µM (Myostatin; [3])	inhibition at 0.03 µM (GDF-11)	inhibition at 0.1 µM (GDF-11)	also measured
CCCCCCCCCC[C@@H]1NC(=O)[C@H](Cc2ccccc2)N(C)C(=O)[C@H](CCCNC(=N)N)NC(=O)[C@H](Cc2ccc(C(=O)O)cc2)NC(=O)[C@H](Cc2cccc(OCC(=O)O)c2)NC(=O)[C@H]2CCCN2C(=O)[C@H]([C@@H](C)CC)NC(=O)[C@H](Cc2ccccc2)N(C)C(=O)[C@H](Cc2ccc(O)cc2)NC(=O)[C@H](Cc2ccc(-c3ccc(S(C)(=O)=O)cc3)cc2)NC(=O)[C@H](C)NC(=O)[C@H](C)NC(=O)CSC[C@H](C(=O)N2CCC(CCC(N)=O)CC2)NC(=O)[C@H](Cc2ccccc2)N(C)C(=O)[C@H](CCC(=O)O)N(C)C1=O [Myostatin_99_v345] ({CH2CO}-AA[X6]Y[NMeF]I[dP][Phe(3-OCH2COOH)][Phe(4-COOH)]R[NMeF][Gly(decyl)][NMeE][NMeF][dC]-{Piperidine(4-CH2CH2CONH2)}; thioether N-15)	–	–	–	–	inhibition at 0.03 µM (Myostatin; [1]): 100%; inhibition at 0.1 µM (Myostatin; [1]): 100%; inhibition (GDF-11; HepG2, read-out: inhibition rate (GDF-11 inhibition assay), Table 7-3/7-4, GDF-11 10 ng/mL, peptide at the higher of the 2 concentrations): 70%; inhibition (GDF-11; HepG2, read-out: inhibition rate (GDF-11 inhibition assay), Table 7-3/7-4, GDF-11 10 ng/mL, peptide at the lower of the 2 concentrations): 7%
CC[C@H](C)[C@@H]1NC(=O)[C@H](Cc2ccccc2)N(C)C(=O)[C@H](Cc2ccc(O)cc2)NC(=O)[C@H](Cc2c[nH]c3ccccc23)NC(=O)[C@H](C)NC(=O)CN(CCCC(=O)O)C(=O)CSC[C@H](C(=O)NCC(=O)N[C@H](CCC(=O)O)C(=O)NCC(=O)N[C@H](CCCCN)C(=O)O)NC(=O)[C@H](Cc2ccccc2)N(C)C(=O)[C@H](C)N(C)C(=O)[C@H](CC(C)C)NC(=O)[C@H](Cc2ccccc2)N(C)C(=O)[C@H](CCCNC(=N)N)NC(=O)[C@H](Cc2ccc(C(=O)O)cc2)NC(=O)[C@H](Cc2ccc(O)cc2)NC(=O)CN(C)C1=O [Myostatin_99_v27] ({CH2CO}-[Gly(N(CH2)3COOH)]AWY[NMeF]I[Sar]Y[Phe(4-COOH)]R[NMeF]L[NMeA][NMeF][dC]G[dE]G[dK]-OH; thioether N-15)	24%	54%	0%	0%	–
CC[C@H](C)[C@@H]1NC(=O)[C@H](Cc2ccccc2)N(C)C(=O)[C@H](Cc2ccc(O)cc2)NC(=O)[C@H](Cc2c[nH]c3ccccc23)NC(=O)[C@H](C)NC(=O)CN(CCCC(=O)O)C(=O)CSC[C@H](C(=O)O)NC(=O)[C@H](Cc2ccccc2)N(C)C(=O)[C@H](C)N(C)C(=O)[C@H](CC(C)C)NC(=O)[C@H](Cc2ccccc2)N(C)C(=O)[C@H](CCCNC(=N)N)NC(=O)[C@H](Cc2ccc(O)cc2)NC(=O)[C@H](Cc2ccc(C(=O)O)cc2)NC(=O)CN(C)C1=O [Myostatin_99_Variant_06] ({CH2CO}-[Gly(N(CH2)3COOH)]AWY[NMeF]I[Sar][Phe(4-COOH)]YR[NMeF]L[NMeA][NMeF][dC]-OH; thioether N-15)	40%	65%	0%	0%	–
CCCCCCC[C@@H]1NC(=O)[C@H](Cc2ccccc2)N(C)C(=O)[C@H](CCCNC(=N)N)NC(=O)[C@H](Cc2ccc(C(=O)O)cc2)NC(=O)[C@H](Cc2cccc(OCC(=O)O)c2)NC(=O)CN(C)C(=O)[C@H]([C@@H](C)CC)NC(=O)[C@H](Cc2ccc(OCCCN)cc2)N(C)C(=O)[C@H](Cc2ccc(O)cc2)NC(=O)[C@H](Cc2c[nH]c3ccccc23)NC(=O)[C@H](C)NC(=O)[C@H](C)NC(=O)CSC[C@H](C(=O)N2CCN(CC(=O)O)CC2)NC(=O)[C@H](Cc2ccccc2)N(C)C(=O)[C@H](C)N(C)C1=O [Myostatin_99_v302] ({CH2CO}-AAWY[NMeY](Propyl(3-NH2))I[Sar][Phe(3-OCH2COOH)][Phe(4-COOH)]R[NMeF][X1][NMeA][NMeF][dC]-{Piperazinyl(4-CH2COOH)}; thioether N-15)	99%	100%	0%	0%	–
CCCCCCC[C@@H]1NC(=O)[C@H](Cc2ccccc2)N(C)C(=O)[C@H](CCCNC(=N)N)NC(=O)[C@H](Cc2ccc(C(=O)O)cc2)NC(=O)[C@H](Cc2cccc(OCC(=O)O)c2)NC(=O)CN(C)C(=O)[C@H]([C@@H](C)CC)NC(=O)[C@H](Cc2ccc(OC)cc2)N(C)C(=O)[C@H](Cc2ccc(O)cc2)NC(=O)[C@H](Cc2c[nH]c3ccccc23)NC(=O)[C@H](C)NC(=O)[C@H](C)NC(=O)CSC[C@H](C(=O)N2CCN(CC(=O)O)CC2)NC(=O)[C@H](Cc2ccccc2)N(C)C(=O)[C@H](C)N(C)C1=O [Myostatin_99_v307] ({CH2CO}-AAWY[NMeY](Me)I[Sar][Phe(3-OCH2COOH)][Phe(4-COOH)]R[NMeF][X1][NMeA][NMeF][dC]-{Piperazinyl(4-CH2COOH)}; thioether N-15)	–	–	–	–	inhibition at 0.1 µM (Myostatin; Table 7-3/7-4, myostatin 10 ng/mL, peptide at the higher of the 2 concentrations, HepG2, read-out: inhibition rate (myostatin inhibition assay)): 98%; inhibition at 0.03 µM (Myostatin; Table 7-3/7-4, myostatin 10 ng/mL, peptide at the lower of the 2 concentrations, HepG2, read-out: inhibition rate (myostatin inhibition assay)): 89%; inhibition (GDF-11; HepG2, first GDF-11 column of Table 7-3/7-4, GDF-11 10 ng/mL, peptide at the lower of the 2 concentrations, read-out: inhibition rate (GDF-11 inhibition assay)): 0%; inhibition (GDF-11; HepG2, second GDF-11 column of Table 7-3/7-4, GDF-11 10 ng/mL, peptide at the higher of the 2 concentrations, read-out: inhibition rate (GDF-11 inhibition assay)): 12%
CC[C@H](C)[C@@H]1NC(=O)[C@H](Cc2ccccc2)N(C)C(=O)[C@H](Cc2ccc(Oc3ccccc3)cc2)NC(=O)[C@H](Cc2ccc(-c3ccccn3)cc2)NC(=O)[C@H](C)NC(=O)CN(CCCC(=O)O)C(=O)CSC[C@H](C(=O)O)NC(=O)[C@H](Cc2ccccc2)N(C)C(=O)[C@H](C)N(C)C(=O)[C@H](CC(C)C)NC(=O)[C@H](Cc2ccccc2)N(C)C(=O)[C@H](CCCNC(=N)N)NC(=O)[C@H](Cc2ccc(OCC(=O)O)cc2)NC(=O)[C@H](Cc2ccccc2)NC(=O)CN(C)C1=O [Myostatin_99_v60] ({CH2CO}-[Gly(N(CH2)3COOH)]A[X15][Tyr(Ph)][NMeF]I[Sar]FY(Carboxymethyl)R[NMeF]L[NMeA][NMeF][dC]-OH; thioether N-15)	25%	51%	7%	5%	–
CCCCCCCCCC[C@@H]1NC(=O)[C@H](CC2CCCCC2)NC(=O)[C@H](CCCNC(=N)N)NC(=O)[C@H](Cc2ccc(C(=O)O)cc2)NC(=O)[C@H](CCCCNC(=O)N2CCN(CC(=O)O)CC2)NC(=O)CN(C)C(=O)[C@H]([C@@H](C)CC)NC(=O)[C@H](Cc2ccccc2)N(C)C(=O)[C@H](Cc2ccc(O)cc2)NC(=O)[C@H](Cc2c[nH]c3ccccc23)NC(=O)[C@@H](CCCCNC(=O)N2CCN(CC(=O)O)CC2)NC(=O)[C@H](C)NC(=O)CSC[C@H](C(=O)N2CCN(CC(=O)O)CC2)NC(=O)[C@H](Cc2ccccc2)N(C)C(=O)[C@H](C)N(C)C1=O [Myostatin_99_v268] ({CH2CO}-A[dK]([CO-Piperazinyl(4-CH2COOH)])WY[NMeF]I[Sar]K([CO-Piperazinyl(4-CH2COOH)])[Phe(4-COOH)]R[Cha][Gly(decyl)][NMeA][NMeF][dC]-{Piperazinyl(4-CH2COOH)}; thioether N-15)	100%	100%	65%	92%	–
CCCCCCC[C@@H]1NC(=O)[C@H](Cc2ccccc2)N(C)C(=O)[C@H](CCCNC(=N)N)NC(=O)[C@H](Cc2ccc(C(=O)O)cc2)NC(=O)[C@H](Cc2cccc(OCC(=O)O)c2)NC(=O)CN(C)C(=O)[C@H]([C@@H](C)CC)NC(=O)[C@H](Cc2ccccc2)N(C)C(=O)[C@H](Cc2cccc(-c3ccccc3)c2)NC(=O)[C@H](Cc2c[nH]c3ccccc23)NC(=O)[C@H](C)NC(=O)[C@H](C)NC(=O)CSC[C@H](C(=O)N2CCN(CC(=O)O)CC2)NC(=O)[C@H](Cc2ccccc2)N(C)C(=O)[C@H](C)N(C)C1=O [Myostatin_99_v301] ({CH2CO}-AAW[Phe(3-Ph)][NMeF]I[Sar][Phe(3-OCH2COOH)][Phe(4-COOH)]R[NMeF][X1][NMeA][NMeF][dC]-{Piperazinyl(4-CH2COOH)}; thioether N-15)	93%	99%	0%	0%	–
